# Target: T1, PI3Kδ (Homo sapiens, UniProt O00329)
# T1 construct: Full length p110 subunits of PI3k α, β and δ, N-terminally labeled with polyHis tag; polyHis (N); made in house; host or cells: Sf9 insect cells (baculovirus)
# Experiment: PI3Kδ Alphascreen assay
# Assay type: biochemical
# T1 sequence (O00329 whole entry): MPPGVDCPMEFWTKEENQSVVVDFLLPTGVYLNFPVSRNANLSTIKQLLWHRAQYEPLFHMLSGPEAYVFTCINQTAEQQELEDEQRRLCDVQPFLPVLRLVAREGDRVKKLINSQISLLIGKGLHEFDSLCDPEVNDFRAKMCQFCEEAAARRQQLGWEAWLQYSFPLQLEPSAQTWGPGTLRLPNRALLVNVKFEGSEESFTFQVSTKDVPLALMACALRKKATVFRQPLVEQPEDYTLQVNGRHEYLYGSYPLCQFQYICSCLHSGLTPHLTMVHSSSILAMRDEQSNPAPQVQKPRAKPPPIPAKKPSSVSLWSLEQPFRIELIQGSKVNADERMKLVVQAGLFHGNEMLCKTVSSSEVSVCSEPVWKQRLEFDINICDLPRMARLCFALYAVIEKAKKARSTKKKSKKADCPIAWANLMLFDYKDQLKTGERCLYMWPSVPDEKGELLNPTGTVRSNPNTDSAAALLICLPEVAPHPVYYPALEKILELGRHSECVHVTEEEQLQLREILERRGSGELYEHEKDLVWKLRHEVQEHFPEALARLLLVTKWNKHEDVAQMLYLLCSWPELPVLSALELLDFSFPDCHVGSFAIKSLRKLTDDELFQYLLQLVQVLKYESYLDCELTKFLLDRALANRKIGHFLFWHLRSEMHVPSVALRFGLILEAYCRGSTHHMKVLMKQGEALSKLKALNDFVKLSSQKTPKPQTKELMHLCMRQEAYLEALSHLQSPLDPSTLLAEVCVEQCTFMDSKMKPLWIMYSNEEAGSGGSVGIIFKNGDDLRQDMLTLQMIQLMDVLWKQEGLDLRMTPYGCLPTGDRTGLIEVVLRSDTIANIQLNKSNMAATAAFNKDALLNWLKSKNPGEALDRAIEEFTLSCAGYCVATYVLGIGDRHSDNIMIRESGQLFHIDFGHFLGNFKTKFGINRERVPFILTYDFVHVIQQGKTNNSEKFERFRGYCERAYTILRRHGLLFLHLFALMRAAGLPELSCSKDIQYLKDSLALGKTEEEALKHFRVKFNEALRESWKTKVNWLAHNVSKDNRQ
# T1 sequence (P27986 whole entry partner): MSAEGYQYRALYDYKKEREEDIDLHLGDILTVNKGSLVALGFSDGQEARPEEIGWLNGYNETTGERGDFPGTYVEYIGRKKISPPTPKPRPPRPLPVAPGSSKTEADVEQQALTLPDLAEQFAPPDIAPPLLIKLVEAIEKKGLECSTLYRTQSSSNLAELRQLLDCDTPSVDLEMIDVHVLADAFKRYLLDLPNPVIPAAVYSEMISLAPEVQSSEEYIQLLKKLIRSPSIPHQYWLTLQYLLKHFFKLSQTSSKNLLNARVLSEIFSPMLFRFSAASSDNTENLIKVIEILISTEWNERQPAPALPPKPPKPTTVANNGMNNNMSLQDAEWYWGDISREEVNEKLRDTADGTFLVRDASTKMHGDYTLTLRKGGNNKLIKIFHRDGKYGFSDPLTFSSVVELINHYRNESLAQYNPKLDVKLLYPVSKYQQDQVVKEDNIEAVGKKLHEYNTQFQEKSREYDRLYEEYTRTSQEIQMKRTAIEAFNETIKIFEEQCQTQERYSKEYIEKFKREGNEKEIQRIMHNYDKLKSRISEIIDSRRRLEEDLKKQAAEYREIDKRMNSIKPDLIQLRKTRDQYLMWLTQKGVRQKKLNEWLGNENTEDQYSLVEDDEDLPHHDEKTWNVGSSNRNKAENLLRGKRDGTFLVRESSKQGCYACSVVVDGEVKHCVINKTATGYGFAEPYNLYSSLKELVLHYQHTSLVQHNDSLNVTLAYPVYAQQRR
row,Ki [nM],SMILES
1,2.73,"COc1ccc(-c2ccc(N3CCOCC3)cc2Nc2c(C)c(-c3ccccc3S(C)(=O)=O)nc3cc(F)cc(F)c23)cn1 [5,7-difluoro-N-(2-(6-methoxy-3-pyridinyl)-5-(4-morpholinyl)-phenyl)-3-methyl-2-(2-(methylsulfonyl)phenyl)-4-quinolinamine]"
2,3.19,"COc1ccc(-c2ccc(N3CCOCC3)cc2Nc2c(C)c(-c3ccccn3)nc3cc(F)cc(F)c23)cn1 [5,7-difluoro-N-(2-(6-methoxy-3-pyridinyl)-5-(4-morpholinyl)-phenyl)-3-methyl-2-(2-pyridinyl)-4-quinolinamine]"
3,3.59,"COc1ccc(-c2ccc(N3CCOCC3)cc2Nc2c(C)c(-c3cc(C)ccn3)nc3cc(F)cc(F)c23)cn1 [5,7-difluoro-N-(2-(6-methoxy-3-pyridinyl)-5-(4-morpholinyl)-phenyl)-3-methyl-2-(4-methyl-2-pyridinyl)-4-quinolinamine]"
4,38.5,"COc1ccc(-c2ccc(N3CCOCC3)cc2Nc2c(C)c(-c3ccccn3)nc3cc(F)cc(F)c23)cc1 [5,7-difluoro-N-(4′-methoxy-4-(4-morpholinyl)-2-biphenylyl)-3-methyl-2-(2-pyridinyl)-4-quinolinamine]"
5,0.485,Cc1c(-c2ccccn2)nc2cccc(F)c2c1Nc1cc(N2CCOCC2)ccc1S(C)(=O)=O [5-fluoro-3-methyl-N-(2-(methylsulfonyl)-5-(4-morpholinyl)-phenyl)-2-(2-pyridinyl)-4-quinolinamine]
6,47.5,Cc1c(-c2cc([N+](=O)[O-])ccc2F)nc2cc(F)ccc2c1Nc1cncc(N2CCOCC2)c1 [7-fluoro-2-(2-fluoro-5-nitrophenyl)-3-methyl-N-(5-(4-morpholinyl)-3-pyridinyl)-4-quinolinamine]
7,2.39,Cc1ccnc(-c2nc3c(Cl)cccc3c(Nc3cncc(N4CCOCC4)c3)c2C)c1 [8-chloro-3-methyl-2-(4-methyl-2-pyridinyl)-N-(5-(4-morpholinyl)-3-pyridinyl)-4-quinolinamine]
8,7.45,Cc1c(-c2ccccn2)nc2c(Cl)cccc2c1Nc1cncc(N2CCOCC2)c1 [8-chloro-3-methyl-N-(5-(4-morpholinyl)-3-pyridinyl)-2-(2-pyridinyl)-4-quinolinamine]
9,9.49,"Cc1ccnc(-c2nc3c(Cl)cccc3c(Nc3cc(N4CCOCC4)cnc3N3CCOCC3)c2C)c1 [8-chloro-N-(2,5-di-4-morpholinyl-3-pyridinyl)-3-methyl-2-(4-methyl-2-pyridinyl)-4-quinolinamine]"
10,2.85,"Cc1c(-c2ccccn2)nc2c(Cl)c(F)cc(F)c2c1Nc1cc(N2CCOCC2)cnc1N1CCOCC1 [8-chloro-N-(2,5-di-4-morpholinyl-3-pyridinyl)-5,7-difluoro-3-methyl-2-(2-pyridinyl)-4-quinolinamine]"
11,2.57,"Cc1c(-c2ccccn2)nc2c(Cl)ccc(F)c2c1Nc1cc(N2CCOCC2)cnc1N1CCOCC1 [8-chloro-N-(2,5-di-4-morpholinyl-3-pyridinyl)-5-fluoro-3-methyl-2-(2-pyridinyl)-4-quinolinamine]"
12,22.6,"Cc1c(-c2ccccn2)nc2c(Cl)c(F)ccc2c1Nc1cc(N2CCOCC2)cnc1N1CCOCC1 [8-chloro-N-(2,5-di-4-morpholinyl-3-pyridinyl)-7-fluoro-3-methyl-2-(2-pyridinyl)-4-quinolinamine]"
13,1.57,"Cc1c(-c2cc([C@@H](C)O)ccc2S(C)(=O)=O)nc2cc(F)cc(F)c2c1Nc1cncc(N2CCOCC2)c1 [(1R)-1-(3-(5,7-difluoro-3-methyl-4-((5-(4-morpholinyl)-3-pyridinyl)amino)-2-quinolinyl)-4-(methylsulfonyl)phenyl)-ethanol]"
14,3.08,"Cc1c(-c2ccccn2)nc2cc(F)cc(F)c2c1Nc1cc(C2=CCOCC2)cnc1C1=CCOCC1 [N-(2,5-di-3,6-dihydro-2H-pyran-4-yl-3-pyridinyl)-5,7-difluoro-3-methyl-2-(2-pyridinyl)-4-quinolinamine]"
15,119,"C=Cc1ccnc(-c2nc3cc(F)cc(F)c3c(Nc3cc(N4CCOCC4)cnc3N3CCOCC3)c2C)c1 [N-(2,5-di-4-morpholinyl-3-pyridinyl)-2-(4-ethenyl-2-pyridinyl)-5,7-difluoro-3-methyl-4-quinolinamine]"
16,25.5,"CCOc1ccc(-c2nc3cc(F)cc(F)c3c(Nc3cc(N4CCOCC4)cnc3N3CCOCC3)c2C)cn1 [N-(2,5-di-4-morpholinyl-3-pyridinyl)-2-(6-ethoxy-3-pyridinyl)-5,7-difluoro-3-methyl-4-quinolinamine]"
17,6.22,"Cc1c(-c2ccccc2F)nc2cc(F)cc(F)c2c1Nc1cc(N2CCOCC2)cnc1N1CCOCC1 [N-(2,5-di-4-morpholinyl-3-pyridinyl)-5,7-difluoro-2-(2-fluorophenyl)-3-methyl-4-quinolinamine]"
18,33.4,"COc1cc(-c2nc3cc(F)cc(F)c3c(Nc3cc(N4CCOCC4)cnc3N3CCOCC3)c2C)ccn1 [N-(2,5-di-4-morpholinyl-3-pyridinyl)-5,7-difluoro-2-(2-methoxy-4-pyridinyl)-3-methyl-4-quinolinamine]"
19,18.5,"Cc1c(-c2ccc(F)nc2)nc2cc(F)cc(F)c2c1Nc1cc(N2CCOCC2)cnc1N1CCOCC1 [N-(2,5-di-4-morpholinyl-3-pyridinyl)-5,7-difluoro-2-(6-fluoro-3-pyridinyl)-3-methyl-4-quinolinamine]"
20,33.2,"COc1ccc(-c2nc3cc(F)cc(F)c3c(Nc3cc(N4CCOCC4)cnc3N3CCOCC3)c2C)cn1 [N-(2,5-di-4-morpholinyl-3-pyridinyl)-5,7-difluoro-2-(6-methoxy-3-pyridinyl)-3-methyl-4-quinolinamine]"
21,8.6,"Cc1c(-c2cccc3c2cnn3C)nc2cc(F)cc(F)c2c1Nc1cc(N2CCOCC2)cnc1N1CCOCC1 [N-(2,5-di-4-morpholinyl-3-pyridinyl)-5,7-difluoro-3-methyl-2-(1-methyl-1H-indazol-4-yl)-4-quinolinamine]"
22,16.1,"Cc1c(-c2cccc3c2ccn3C)nc2cc(F)cc(F)c2c1Nc1cc(N2CCOCC2)cnc1N1CCOCC1 [N-(2,5-di-4-morpholinyl-3-pyridinyl)-5,7-difluoro-3-methyl-2-(1-methyl-1H-indol-4-yl)-4-quinolinamine]"
23,34.7,"Cc1c(-c2ccnc(N3CCNCC3)c2)nc2cc(F)cc(F)c2c1Nc1cc(N2CCOCC2)cnc1N1CCOCC1 [N-(2,5-di-4-morpholinyl-3-pyridinyl)-5,7-difluoro-3-methyl-2-(2-(1-piperazinyl)-4-pyridinyl)-4-quinolinamine]"
24,40.7,"Cc1c(-c2ccnc(N3CCCC3)c2)nc2cc(F)cc(F)c2c1Nc1cc(N2CCOCC2)cnc1N1CCOCC1 [N-(2,5-di-4-morpholinyl-3-pyridinyl)-5,7-difluoro-3-methyl-2-(2-(1-pyrrolidinyl)-4-pyridinyl)-4-quinolinamine]"
25,15,"Cc1c(-c2ccnc(N3CCN(C)CC3)c2)nc2cc(F)cc(F)c2c1Nc1cc(N2CCOCC2)cnc1N1CCOCC1 [N-(2,5-di-4-morpholinyl-3-pyridinyl)-5,7-difluoro-3-methyl-2-(2-(4-methyl-1-piperazinyl)-4-pyridinyl)-4-quinolinamine]"
26,51,"Cc1c(-c2ccccc2[S@+](C)[O-])nc2cc(F)cc(F)c2c1Nc1cc(N2CCOCC2)cnc1N1CCOCC1 [N-(2,5-di-4-morpholinyl-3-pyridinyl)-5,7-difluoro-3-methyl-2-(2-((S)-methylsulfinyl)phenyl)-4-quinolinamine]"
